# Test results as given in paper PMC9067983, “Identification of highly selective type II kinase inhibitors with chiral peptidomimetic tails” (Journal of Enzyme Inhibition and Medicinal Chemistry, 2022).
# Where a SMILES comes first, the peptide text is derived from it. [ ]: non-standard residue; d: D form. The star is where a group is joined. X1 = Cc1ccc(Nc2ncc3c(n2)N(C)C(=O)N(c2cc(C(=O)*)ccc2C)C3)cn1; Aib = CC(C)(N)C(=O)O
# Tests used:
# Test in all cases: kinase selectivity profiling
# Format in all cases: biochemical
# Conditions in all cases: 10µM ATP, read-out: % inhibition (relative to DMSO)
# Aurora C = target: T1, Aurora C (Homo sapiens, UniProt Q9UQB9)
# T1 construct: purchased Reaction Biology Corp
# Procedure: (§1) Full panel kinase profiling and kinase IC50 measurement were performed by using Reaction Biology Corp. (San Diego, USA).
# ROCK1 = target: T2, ROCK1 (Homo sapiens, UniProt Q13464)
# T2 construct: purchased Reaction Biology Corp
# Procedure: as §1
# EPHB4 = target: T3, EPHB4 (Homo sapiens, UniProt P54760)
# T3 construct: purchased Reaction Biology Corp
# Procedure: as §1
# PKD2/PRKD2 = target: T4, PKD2/PRKD2 (Homo sapiens, UniProt Q9BZL6)
# T4 construct: purchased Reaction Biology Corp
# Procedure: as §1
# DDR1 = target: T5, DDR1 (Homo sapiens, UniProt Q08345)
# T5 construct: purchased Reaction Biology Corp
# Procedure: as §1
# GRK6 = target: T6, GRK6 (Homo sapiens, UniProt P43250)
# T6 construct: purchased Reaction Biology Corp
# Procedure: as §1
# PBK/TOPK = target: T7, PBK/TOPK (Homo sapiens, UniProt Q96KB5)
# T7 construct: purchased Reaction Biology Corp
# Procedure: as §1
# p70S6Kb/RPS6KB2 = target: T8, p70S6Kb/RPS6KB2 (Homo sapiens, UniProt Q9UBS0)
# T8 construct: purchased Reaction Biology Corp
# Procedure: as §1
# BMX/ETK = target: T9, BMX/ETK (Homo sapiens, UniProt P51813)
# T9 construct: purchased Reaction Biology Corp
# Procedure: as §1
# JNK2 = target: T10, JNK2 (Homo sapiens, UniProt P45984)
# T10 construct: purchased Reaction Biology Corp
# Procedure: as §1
# COT1/MAP3K8 = target: T11, COT1/MAP3K8 (Homo sapiens, UniProt P41279)
# T11 construct: purchased Reaction Biology Corp
# Procedure: as §1
# CLK3 = target: T12, CLK3 (Homo sapiens, UniProt P49761)
# T12 construct: purchased Reaction Biology Corp
# Procedure: as §1
# CK1epsilon = target: T13, CK1epsilon (Homo sapiens, UniProt P49674)
# T13 construct: purchased Reaction Biology Corp
# Procedure: as §1
# SNARK/NUAK2 = target: T14, SNARK/NUAK2 (Homo sapiens, UniProt Q9H093)
# T14 construct: purchased Reaction Biology Corp
# Procedure: as §1
# ERBB4/HER4 = target: T15, ERBB4/HER4 (Homo sapiens, UniProt Q15303)
# T15 construct: purchased Reaction Biology Corp
# Procedure: as §1
# FAK/PTK2 = target: T16, FAK/PTK2 (Homo sapiens, UniProt Q05397)
# T16 construct: purchased Reaction Biology Corp
# Procedure: as §1
# ALK6/BMPR1B = target: T17, ALK6/BMPR1B (Homo sapiens, UniProt O00238)
# T17 construct: purchased Reaction Biology Corp
# Procedure: as §1
# LOK/STK10 = target: T18, LOK/STK10 (Homo sapiens, UniProt O94804)
# T18 construct: purchased Reaction Biology Corp
# Procedure: as §1
# ASK1/MAP3K5 = target: T19, ASK1/MAP3K5 (Homo sapiens, UniProt Q99683)
# T19 construct: purchased Reaction Biology Corp
# Procedure: as §1
# RON/MST1R = target: T20, RON/MST1R (Homo sapiens, UniProt Q04912)
# T20 construct: purchased Reaction Biology Corp
# Procedure: as §1
# Aurora B = target: T21, Aurora B (Homo sapiens, UniProt Q96GD4)
# T21 construct: purchased Reaction Biology Corp
# Procedure: as §1
# NIM1 = target: T22, NIM1 (Homo sapiens, UniProt Q8IY84)
# T22 construct: purchased Reaction Biology Corp
# Procedure: as §1
# EPHB1 = target: T23, EPHB1 (Homo sapiens, UniProt P54762)
# T23 construct: purchased Reaction Biology Corp
# Procedure: as §1
# PKN2/PRK2 = target: T24, PKN2/PRK2 (Homo sapiens, UniProt Q16513)
# T24 construct: purchased Reaction Biology Corp
# Procedure: as §1
# DLK/MAP3K12 = target: T25, DLK/MAP3K12 (Homo sapiens, UniProt Q12852)
# T25 construct: purchased Reaction Biology Corp
# Procedure: as §1
# CAMK1b = target: T26, CAMK1b (Homo sapiens, UniProt Q6P2M8)
# T26 construct: purchased Reaction Biology Corp
# Procedure: as §1
# IKKa/CHUK = target: T27, IKKa/CHUK (Homo sapiens, UniProt O15111)
# T27 construct: purchased Reaction Biology Corp
# Procedure: as §1
# SGK1 = target: T28, SGK1 (Homo sapiens, UniProt O00141)
# T28 construct: purchased Reaction Biology Corp
# Procedure: as §1
# TAK1 = target: T29, TAK1 (Homo sapiens, UniProt O43318)
# T29 construct: purchased Reaction Biology Corp
# Procedure: as §1
# KSR2 = target: T30, KSR2 (Homo sapiens, UniProt Q6VAB6)
# T30 construct: purchased Reaction Biology Corp
# Procedure: as §1
# CDK9/cyclin T1 = target: T31, CDK9/cyclin T1 (Homo sapiens, UniProt P50750)
# T31 construct: purchased Reaction Biology Corp
# Procedure: as §1
# PKAcg = target: T32, PKAcg (Homo sapiens, UniProt P22612)
# T32 construct: purchased Reaction Biology Corp
# Procedure: as §1
# MEKK2 = target: T33, MEKK2 (Homo sapiens, UniProt Q9Y2U5)
# T33 construct: purchased Reaction Biology Corp
# Procedure: as §1
# SRPK2 = target: T34, SRPK2 (Homo sapiens, UniProt P78362)
# T34 construct: purchased Reaction Biology Corp
# Procedure: as §1
# DRAK1/STK17A = target: T35, DRAK1/STK17A (Homo sapiens, UniProt Q9UEE5)
# T35 construct: purchased Reaction Biology Corp
# Procedure: as §1
# CK1g1 = target: T36, CK1g1 (Homo sapiens, UniProt Q9HCP0)
# T36 construct: purchased Reaction Biology Corp
# Procedure: as §1
# FGFR1 = target: T37, FGFR1 (Homo sapiens, UniProt P11362)
# T37 construct: purchased Reaction Biology Corp
# Procedure: as §1
# CDK16/cyclin Y (PCTAIRE) = target: T38, CDK16/cyclin Y (PCTAIRE) (Homo sapiens, UniProt Q00536)
# T38 construct: purchased Reaction Biology Corp
# Procedure: as §1
# DYRK2 = target: T39, DYRK2 (Homo sapiens, UniProt Q92630)
# T39 construct: purchased Reaction Biology Corp
# Procedure: as §1
# P38g = target: T40, P38g (Homo sapiens, UniProt P53778)
# T40 construct: purchased Reaction Biology Corp
# Procedure: as §1
# CK1d = target: T41, CK1d (Homo sapiens, UniProt P48730)
# T41 construct: purchased Reaction Biology Corp
# Procedure: as §1
# VRK2 = target: T42, VRK2 (Homo sapiens, UniProt Q86Y07)
# T42 construct: purchased Reaction Biology Corp
# Procedure: as §1
# T26 sequence (Q6P2M8 whole entry): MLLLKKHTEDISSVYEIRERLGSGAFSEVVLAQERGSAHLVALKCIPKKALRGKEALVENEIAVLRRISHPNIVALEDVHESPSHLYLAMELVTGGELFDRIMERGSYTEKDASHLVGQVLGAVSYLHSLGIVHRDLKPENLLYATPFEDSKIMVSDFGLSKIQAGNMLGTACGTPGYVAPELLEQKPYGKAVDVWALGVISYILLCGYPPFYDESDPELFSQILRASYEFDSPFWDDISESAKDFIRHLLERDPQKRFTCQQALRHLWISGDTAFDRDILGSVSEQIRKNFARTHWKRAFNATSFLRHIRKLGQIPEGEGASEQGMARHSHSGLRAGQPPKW
# T14 sequence (Q9H093 whole entry): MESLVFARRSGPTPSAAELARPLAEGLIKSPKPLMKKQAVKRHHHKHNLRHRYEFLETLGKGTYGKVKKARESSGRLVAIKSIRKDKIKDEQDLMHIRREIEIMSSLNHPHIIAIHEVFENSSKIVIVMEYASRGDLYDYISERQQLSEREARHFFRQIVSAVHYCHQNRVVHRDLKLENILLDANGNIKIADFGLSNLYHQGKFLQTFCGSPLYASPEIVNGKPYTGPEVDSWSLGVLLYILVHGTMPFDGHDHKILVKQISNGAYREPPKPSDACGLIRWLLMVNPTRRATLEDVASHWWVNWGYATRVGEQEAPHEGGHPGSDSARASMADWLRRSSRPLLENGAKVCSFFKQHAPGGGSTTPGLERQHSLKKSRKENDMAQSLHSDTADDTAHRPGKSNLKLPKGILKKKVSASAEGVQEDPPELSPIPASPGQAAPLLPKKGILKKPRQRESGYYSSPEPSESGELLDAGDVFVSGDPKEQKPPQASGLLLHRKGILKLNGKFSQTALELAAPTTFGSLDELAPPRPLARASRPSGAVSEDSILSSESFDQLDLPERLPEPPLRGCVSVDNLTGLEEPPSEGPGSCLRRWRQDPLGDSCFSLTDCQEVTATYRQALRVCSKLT
# T28 sequence (O00141 whole entry): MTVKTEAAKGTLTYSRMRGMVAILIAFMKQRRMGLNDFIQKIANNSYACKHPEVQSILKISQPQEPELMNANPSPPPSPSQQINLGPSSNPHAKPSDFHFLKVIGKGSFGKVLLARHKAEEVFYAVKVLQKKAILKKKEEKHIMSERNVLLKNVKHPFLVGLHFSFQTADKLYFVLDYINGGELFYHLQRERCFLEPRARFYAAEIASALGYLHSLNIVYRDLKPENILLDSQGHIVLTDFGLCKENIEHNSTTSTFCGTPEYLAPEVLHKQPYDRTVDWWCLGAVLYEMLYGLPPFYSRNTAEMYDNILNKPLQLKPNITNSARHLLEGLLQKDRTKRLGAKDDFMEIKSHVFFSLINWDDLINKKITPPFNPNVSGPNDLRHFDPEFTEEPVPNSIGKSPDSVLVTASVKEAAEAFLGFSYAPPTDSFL
# T6 sequence (P43250 whole entry): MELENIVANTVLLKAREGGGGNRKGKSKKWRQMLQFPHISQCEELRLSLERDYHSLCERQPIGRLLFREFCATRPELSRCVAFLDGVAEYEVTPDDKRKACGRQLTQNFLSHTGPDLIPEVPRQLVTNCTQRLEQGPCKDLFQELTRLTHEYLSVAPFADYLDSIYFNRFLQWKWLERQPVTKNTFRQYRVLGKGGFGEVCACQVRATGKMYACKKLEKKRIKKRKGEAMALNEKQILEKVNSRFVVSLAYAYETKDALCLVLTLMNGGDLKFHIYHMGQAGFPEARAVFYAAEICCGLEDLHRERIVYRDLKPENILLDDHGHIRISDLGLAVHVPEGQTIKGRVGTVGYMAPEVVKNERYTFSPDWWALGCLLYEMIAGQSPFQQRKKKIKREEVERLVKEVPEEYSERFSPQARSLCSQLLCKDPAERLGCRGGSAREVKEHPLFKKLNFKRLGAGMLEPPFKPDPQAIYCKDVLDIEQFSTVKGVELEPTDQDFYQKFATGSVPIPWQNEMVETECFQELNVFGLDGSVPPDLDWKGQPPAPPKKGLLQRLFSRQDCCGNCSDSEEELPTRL
# T35 sequence (Q9UEE5 whole entry): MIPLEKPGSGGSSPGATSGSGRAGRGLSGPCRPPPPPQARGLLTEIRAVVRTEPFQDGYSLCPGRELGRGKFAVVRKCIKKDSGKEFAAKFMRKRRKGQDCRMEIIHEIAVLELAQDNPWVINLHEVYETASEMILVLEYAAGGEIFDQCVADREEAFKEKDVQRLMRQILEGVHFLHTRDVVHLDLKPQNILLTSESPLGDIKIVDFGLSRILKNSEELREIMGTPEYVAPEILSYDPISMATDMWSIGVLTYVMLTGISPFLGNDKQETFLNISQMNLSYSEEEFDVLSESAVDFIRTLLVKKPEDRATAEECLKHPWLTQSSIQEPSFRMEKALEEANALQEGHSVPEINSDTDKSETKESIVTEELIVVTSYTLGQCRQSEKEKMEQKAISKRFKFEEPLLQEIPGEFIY
# T2 sequence (Q13464 whole entry): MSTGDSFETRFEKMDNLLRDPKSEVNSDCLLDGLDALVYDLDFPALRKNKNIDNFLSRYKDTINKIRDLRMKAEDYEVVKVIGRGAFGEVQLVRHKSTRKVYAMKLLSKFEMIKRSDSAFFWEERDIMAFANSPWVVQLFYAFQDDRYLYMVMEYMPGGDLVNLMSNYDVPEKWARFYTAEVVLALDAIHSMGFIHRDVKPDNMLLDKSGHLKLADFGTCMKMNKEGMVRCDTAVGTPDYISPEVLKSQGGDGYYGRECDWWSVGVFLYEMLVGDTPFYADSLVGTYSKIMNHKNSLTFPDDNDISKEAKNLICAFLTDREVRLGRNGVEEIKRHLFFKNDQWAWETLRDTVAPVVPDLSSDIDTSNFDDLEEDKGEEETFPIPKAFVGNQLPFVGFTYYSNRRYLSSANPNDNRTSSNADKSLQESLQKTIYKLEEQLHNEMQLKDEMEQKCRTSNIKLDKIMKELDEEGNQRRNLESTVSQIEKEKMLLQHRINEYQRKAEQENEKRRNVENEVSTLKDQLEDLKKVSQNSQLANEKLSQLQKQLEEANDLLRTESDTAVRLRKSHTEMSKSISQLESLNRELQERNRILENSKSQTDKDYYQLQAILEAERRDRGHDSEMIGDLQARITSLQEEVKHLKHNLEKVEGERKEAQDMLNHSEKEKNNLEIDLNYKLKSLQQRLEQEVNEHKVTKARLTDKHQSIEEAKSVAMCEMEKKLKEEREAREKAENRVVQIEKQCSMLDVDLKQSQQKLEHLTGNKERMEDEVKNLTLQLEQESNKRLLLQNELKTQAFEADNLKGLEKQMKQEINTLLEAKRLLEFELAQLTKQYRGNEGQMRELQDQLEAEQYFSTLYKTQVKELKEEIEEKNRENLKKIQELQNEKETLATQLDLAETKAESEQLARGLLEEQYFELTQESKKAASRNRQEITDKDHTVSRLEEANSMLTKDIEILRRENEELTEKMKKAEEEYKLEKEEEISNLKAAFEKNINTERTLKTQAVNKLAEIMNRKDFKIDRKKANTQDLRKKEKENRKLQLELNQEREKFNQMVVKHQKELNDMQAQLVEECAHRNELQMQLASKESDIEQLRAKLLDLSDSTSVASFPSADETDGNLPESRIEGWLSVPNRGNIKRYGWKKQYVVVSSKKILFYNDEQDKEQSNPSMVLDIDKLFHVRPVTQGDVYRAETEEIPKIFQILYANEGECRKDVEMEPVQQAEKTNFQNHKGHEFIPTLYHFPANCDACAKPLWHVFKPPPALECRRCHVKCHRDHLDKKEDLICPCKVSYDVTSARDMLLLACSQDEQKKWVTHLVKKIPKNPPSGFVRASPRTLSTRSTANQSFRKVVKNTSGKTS
# T23 sequence (P54762 18-984): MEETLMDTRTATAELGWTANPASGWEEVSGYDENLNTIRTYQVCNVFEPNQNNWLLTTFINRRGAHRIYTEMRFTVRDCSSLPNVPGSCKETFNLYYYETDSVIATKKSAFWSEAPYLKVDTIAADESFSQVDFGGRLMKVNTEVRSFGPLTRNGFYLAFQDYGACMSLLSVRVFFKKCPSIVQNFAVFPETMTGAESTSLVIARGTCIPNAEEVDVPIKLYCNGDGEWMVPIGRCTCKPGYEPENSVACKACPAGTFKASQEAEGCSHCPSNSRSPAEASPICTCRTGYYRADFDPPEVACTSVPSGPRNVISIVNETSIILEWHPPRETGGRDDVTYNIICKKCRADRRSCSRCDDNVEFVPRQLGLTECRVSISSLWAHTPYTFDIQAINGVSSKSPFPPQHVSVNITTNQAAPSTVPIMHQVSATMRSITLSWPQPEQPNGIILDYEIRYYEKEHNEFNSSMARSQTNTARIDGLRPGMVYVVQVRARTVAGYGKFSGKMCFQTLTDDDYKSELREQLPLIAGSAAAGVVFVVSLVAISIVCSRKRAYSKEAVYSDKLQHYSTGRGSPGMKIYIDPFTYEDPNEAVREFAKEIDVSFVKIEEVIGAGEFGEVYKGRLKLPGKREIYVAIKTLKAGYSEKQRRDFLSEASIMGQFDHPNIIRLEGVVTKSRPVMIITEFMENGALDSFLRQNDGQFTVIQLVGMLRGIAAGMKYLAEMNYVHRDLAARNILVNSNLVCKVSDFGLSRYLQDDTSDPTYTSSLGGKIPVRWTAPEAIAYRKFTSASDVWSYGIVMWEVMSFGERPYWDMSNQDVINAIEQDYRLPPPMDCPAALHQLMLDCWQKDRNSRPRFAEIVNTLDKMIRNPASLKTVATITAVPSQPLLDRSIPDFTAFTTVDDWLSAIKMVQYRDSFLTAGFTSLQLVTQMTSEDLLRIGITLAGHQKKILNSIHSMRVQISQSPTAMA
# T7 sequence (Q96KB5 whole entry): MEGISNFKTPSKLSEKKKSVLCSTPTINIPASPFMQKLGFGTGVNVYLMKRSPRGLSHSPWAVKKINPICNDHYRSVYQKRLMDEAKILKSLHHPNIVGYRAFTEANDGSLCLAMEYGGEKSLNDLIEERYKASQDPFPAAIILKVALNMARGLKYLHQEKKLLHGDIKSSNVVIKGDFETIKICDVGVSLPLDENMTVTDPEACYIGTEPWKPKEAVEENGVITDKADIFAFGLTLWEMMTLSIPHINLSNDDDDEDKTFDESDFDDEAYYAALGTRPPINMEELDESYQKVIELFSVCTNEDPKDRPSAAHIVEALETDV
compound,measurement,setting,value
"Cc1ccc(Nc2ncc3c(n2)N(C)C(=O)N(c2cc(C(=O)N[C@H](C(=O)N4CCC[C@H]4C(=O)NC(C)(C)C(=O)N[C@@H](CC(C)C)C(=O)N(C)C)C(C)C)ccc2C)C3)cn1 [7a, (S)-N-(1-(((S)-1-(dimethylamino)-4-methyl-1-oxopentan-2-yl)amino)-2-methyl-1-oxopropan-2-yl)-1-((4-methyl-3-(1-methyl-7-((6-methylpyridin-3-yl)amino)-2-oxo-1,4-dihydropyrimido[4,5-d]pyrimidin-3(2H)-yl)benzoyl)-L-valyl)pyrrolidine-2-carboxamide] (X1-VP[Aib]L-NMe2)",inhibition at 1 µM,Aurora C,0%
same,inhibition at 1 µM,ROCK1,13%
same,inhibition at 1 µM,EPHB4,16%
same,inhibition at 1 µM,PKD2/PRKD2,0%
same,inhibition at 1 µM,DDR1,80%
same,inhibition at 1 µM,GRK6,4%
same,inhibition at 1 µM,PBK/TOPK,0%
same,inhibition at 1 µM,p70S6Kb/RPS6KB2,0%
same,inhibition at 1 µM,BMX/ETK,73%
same,inhibition at 1 µM,JNK2,2%
same,inhibition at 1 µM,COT1/MAP3K8,1%
same,inhibition at 1 µM,CLK3,17%
same,inhibition at 1 µM,CK1epsilon,0%
same,inhibition at 1 µM,SNARK/NUAK2,6%
same,inhibition at 1 µM,ERBB4/HER4,53%
same,inhibition at 1 µM,FAK/PTK2,5%
same,inhibition at 1 µM,ALK6/BMPR1B,16%
same,inhibition at 1 µM,LOK/STK10,3%
same,inhibition at 1 µM,ASK1/MAP3K5,0%
same,inhibition at 1 µM,RON/MST1R,27%
same,inhibition at 1 µM,Aurora B,6%
same,inhibition at 1 µM,NIM1,4%
same,inhibition at 1 µM,EPHB1,16%
same,inhibition at 1 µM,PKN2/PRK2,0%
same,inhibition at 1 µM,DLK/MAP3K12,0%
same,inhibition at 1 µM,CAMK1b,15%
same,inhibition at 1 µM,IKKa/CHUK,6%
same,inhibition at 1 µM,SGK1,0%
same,inhibition at 1 µM,TAK1,4%
same,inhibition at 1 µM,KSR2,5%
same,inhibition at 1 µM,CDK9/cyclin T1,0%
same,inhibition at 1 µM,PKAcg,0%
same,inhibition at 1 µM,MEKK2,0%
same,inhibition at 1 µM,SRPK2,0%
same,inhibition at 1 µM,DRAK1/STK17A,0%
same,inhibition at 1 µM,CK1g1,0%
same,inhibition at 1 µM,FGFR1,37%
same,inhibition at 1 µM,CDK16/cyclin Y (PCTAIRE),6%
same,inhibition at 1 µM,DYRK2,8%
same,inhibition at 1 µM,P38g,4%
same,inhibition at 1 µM,CK1d,11%
same,inhibition at 1 µM,VRK2,0%
